Measurements published in patent US20200045967A1, “NOVEL TRIAZOLE DERIVATIVES” (Bayer CropScience Aktiengesellschaft, priority 2017, published 2020).

Tests used:
[1] = system: Colletotrichum lindemuthianum; assay: Example G3: in vitro test for the calculation of the ED50-value with microorganisms, Colletotrichum lindemuthianum; assay type: cell-based; conditions: liquid culture, spore suspension, 4 to 7 days incubation, spectrometric measurement of mycelium growth
[2] = system: Fusarium culmorum; assay: Example G3: in vitro test for the calculation of the ED50-value with microorganisms, Fusarium culmorum; assay type: cell-based; conditions: liquid culture, spore suspension, 4 to 7 days incubation, spectrometric measurement of mycelium growth
Protocol: • Solvent: DMSO • Culture medium: 14.6 g anhydrous D-glucose (VWR), 7.1 g mycological peptone (Oxoid), 1.4 g granulated yeast extract (Merck), supplemented with water to a total volume of 1 liter • Inoculum: spore suspension
Fungicides were solubilized in DMSO and the solution used to prepare the required range of concentrations. The final concentration of DMSO used in the assay was <1% by weight.
A spore suspension was prepared and diluted to the desired spore density.
Fungicides were evaluated for their ability to inhibit spore germination and mycelium growth in liquid culture assay. The compounds were added in the desired concentration to the culture medium with spores. After 4 to 7 days incubation, fungi-toxicity of compounds was determined by spectrometric measurement of mycelium growth. Inhibition of fungal growth was determined by comparing the absorbance values in wells containing the fungicides with the absorbance in control wells without fungicides.

[3] = system: Botrytis cinerea; assay: Example G1: in vivo preventive test on Botrytis cinerea (grey mould), comparison; conditions: rate of application 500 ppm; gherkin; evaluated 4 to 5 days after inoculation
Protocol: (§1) Young plants of gherkin were treated by spraying the active ingredient prepared as described above. Control plants were treated only with an aqueous solution of acetone/dimethyl sulfoxide/Tween®. After 24 hours, the plants were contaminated by spraying the leaves with an aqueous suspension of Botrytis cinerea spores.

[4] = system: Septoria tritici; assay: Example G6: in vivo curative Septoria tritici test (wheat); conditions: sprayed 48 hours after the incubation, rate of application 500 ppm, evaluated 21 days after inoculation
[5] = system: Pyricularia oryzae; assay type: cell-based; conditions: liquid culture, spore suspension, 4 to 7 days incubation, spectrometric measurement of mycelium growth
[6] = system: Septoria tritici; assay: Example G7: in vivo 5 days preventive Septoria tritici test (wheat); conditions: inoculated 5 days after spraying, rate of application 500 ppm, evaluated 21 days after inoculation
Protocol: (§2) Solvent: 49 parts by weight of N,N-dimethylacetamide Emulsifier: 1 part by weight of alkylaryl polyglycol ether To produce a suitable preparation of active compound, 1 part by weight of active compound is mixed with the stated amounts of solvent and emulsifier, and the concentrate is diluted with water to the desired concentration. To test for preventive and long-lasting activity, young plants are sprayed with a preparation of active compound or active compound combination at the stated rate of application.

[7] = system: Sphaerotheca fuliginea; assay: Example G4: in vivo preventive Sphaerotheca test (cucumbers); conditions: evaluated 7 days after inoculation
Protocol: Solvent: 24.5 parts by weight of acetone • 24.5 parts by weight of dimethylacetamide Emulsifier: 1 part by weight of alkylaryl polyglycol ether To produce a suitable preparation of active compound, 1 part by weight of active compound is mixed with the stated amounts of solvent and emulsifier, and the concentrate is diluted with water to the desired concentration. To test for preventive activity, young plants are sprayed with the preparation of active compound at the stated rate of application. After the spray coating has dried on, the plants are inoculated with an aqueous spore suspension of Sphaerotheca fuliginea.

[8] = system: Puccinia recondita; assay: Example G2: in vivo preventive test on Puccinia recondita (brown rust on wheat), comparison; conditions: evaluated 11 days after inoculation
Protocol: as §1, with “wheat” for “gherkin”, “Puccinia recondita” for “Botrytis cinerea”

[9] = system: Septoria tritici; assay: Example G5: in vivo preventive Septoria tritici test (wheat); conditions: rate of application 500 ppm, evaluated 21 days after inoculation
Protocol: as §2, with “preventive” for “preventive and long-lasting”, “with the” for “with a”, “application. After the spray coating has been dried, the plants are sprayed with a spore suspension of Septoria tritici.” for “application.”

[10] = Log P by HPLC on reversed phase columns (EEC directive 79/831 Annex V.A8); assay type: physicochemical; conditions: method [a]: LC-UV, acidic range, 0.1% formic acid in water and acetonitrile
Protocol: If more than one Log P value is available within the same method, all the values are given and separated by “+”. Calibration was done with straight-chain alkan2-ones (with 3 to 16 carbon atoms) with known Log P values (measurement of Log P values using retention times with linear interpolation between successive alkanones). Lambda-max-values were determined using UV-spectra from 200 nm to 400 nm and the peak values of the chromatographic signals.

**Q.** With CSc1ccc(Oc2ccc(C(C)(O)Cn3cncn3)c(C(F)(F)F)c2)cc1 (stereo not shown) [Comparative compound, reference compound] as the compound, how does the “Colletotrichum lindemuthianum ED50 value in ppm” value [1] read?
**A.** 0.83 ppm

**Q.** What about the “Fusarium culmorum ED50 value in ppm” value [2] of the same compound?
**A.** 2.6 ppm

**Q.** What about the Efficacy in % [3] of the same compound?
**A.** 69%

**Q.** And the Efficacy in % [4]?
**A.** 57%

**Q.** What about the “Pyricularia oryzae ED50 value in ppm” value [5] of the same compound?
**A.** 5.6 ppm

**Q.** What about the Efficacy in % [6] of the same compound?
**A.** 29%

**Q.** And the Efficacy in % ([7]; rate of application 10 ppm)?
**A.** 28%

**Q.** What about the Efficacy in % ([7]; rate of application 100 ppm) of the same compound?
**A.** 100%

**Q.** What about the Efficacy in % ([8]; rate of application 100 ppm) of the same compound?
**A.** 25%

**Q.** And the Efficacy in % ([8]; rate of application 500 ppm)?
**A.** 88%

**Q.** What about the Efficacy in % [9] of the same compound?
**A.** 22%

**Q.** With O=Cc1ccc(Oc2ccc(C(O)Cn3cncn3)c(C(F)(F)F)n2)cc1 (stereo not shown) [Compound I-01, 4-[[5-[1-hydroxy-2-(1,2,4-triazol-1-yl)ethyl]-6-(trifluoromethyl)-2-pyridyl]oxy]benzaldehyde] as the compound, how does the chromatographic logP ([10]; compounds of formula (I)) read?
**A.** 1.91

**Q.** For CSc1ccc(Oc2ccc(C(O)Cn3cncn3)c(C(F)(F)F)n2)cc1 (stereo not shown) [Compound I-02, 1-[6-(4-methylsulfanylphenoxy)-2-(trifluoromethyl)-3-pyridyl]-2-(1,2,4-triazol-1-yl)ethanol], which chromatographic logP ([10]; compounds of formula (I)) is on record?
**A.** 2.59

**Q.** Which “Colletotrichum lindemuthianum ED50 value in ppm” value [1] does the source give for CSc1ccc(Oc2ccc(C(C)(O)Cn3cncn3)c(C(F)(F)F)n2)cc1 (stereo not shown) [Compound I-03, 2-[6-(4-methylsulfanylphenoxy)-2-(trifluoromethyl)-3-pyridyl]-1-(1,2,4-triazol-1-yl)propan-2-ol] here?
**A.** 0.38 ppm

**Q.** What about the “Fusarium culmorum ED50 value in ppm” value [2] of the same compound?
**A.** 0.83 ppm

**Q.** What about the Efficacy in % [3] of the same compound?
**A.** 90%

**Q.** What about the Efficacy in % [4] of the same compound?
**A.** 93%

**Q.** And the “Pyricularia oryzae ED50 value in ppm” value [5]?
**A.** 1.7 ppm

**Q.** And the chromatographic logP ([10]; compounds of formula (I))?
**A.** 2.74

**Q.** And the Efficacy in % [6]?
**A.** 71%

**Q.** What about the Efficacy in % ([7]; rate of application 10 ppm) of the same compound?
**A.** 78%

**Q.** What about the Efficacy in % ([7]; rate of application 100 ppm) of the same compound?
**A.** 100%

**Q.** And the Efficacy in % ([8]; rate of application 100 ppm)?
**A.** 65%

**Q.** And the Efficacy in % ([8]; rate of application 500 ppm)?
**A.** 88%

**Q.** And the Efficacy in % [9]?
**A.** 78%

**Q.** For ON=Cc1ccc(Oc2ccc(C(O)Cn3cncn3)c(C(F)(F)F)n2)cc1 (stereo not shown) [Compound I-04, 4-[[5-[1-hydroxy-2-(1,2,4-triazol-1-yl)ethyl]-6-(trifluoromethyl)-2-pyridyl]oxy]benzaldehyde Oxime], which chromatographic logP ([10]; compounds of formula (I)) is on record?
**A.** 2.26

**Q.** Which chromatographic logP ([10]; compounds of formula (V)) does the source give for CC(=O)c1ccc(Oc2ccc(C3OCCO3)cc2)nc1C(F)(F)F [Compound V-01, 1-[6-[4-(1,3-dioxolan-2-yl)phenoxy]-2-(trifluoromethyl)-3-pyridyl]ethanone] here?
**A.** 2.98

**Q.** Which chromatographic logP ([10]; compounds of formula (V)) does the source give for CSc1ccc(Oc2ccc(C(C)=O)c(C(F)(F)F)n2)cc1 [Compound V-02, 1-[6-(4-methylsulfanylphenoxy)-2-(trifluoromethyl)-3-pyridyl]ethanone] here?
**A.** 3.7

**Q.** Which chromatographic logP ([10]; compounds of formula (VII)) does the source give for O=Cc1ccc(Oc2ccc(C(=O)Cn3cncn3)c(C(F)(F)F)n2)cc1 [VII-01, 4-[[5-[2-(1,2,4-triazol-1-yl)acetyl]-6-(trifluoromethyl)-2-pyridyl]oxy]benzaldehyde] here?
**A.** 2.12

**Q.** With CSc1ccc(Oc2ccc(C(=O)Cn3cncn3)c(C(F)(F)F)n2)cc1 [VII-02, 1-[6-(4-methylsulfanylphenoxy)-2-(trifluoromethyl)-3-pyridyl]-2-(1,2,4-triazol-1-yl)ethanone] as the compound, how does the chromatographic logP ([10]; compounds of formula (VII)) read?
**A.** 2.92

**Q.** Which chromatographic logP ([10]; compounds of formula (VII)) does the source give for C#Cc1ccc(Oc2ccc(C(=O)Cn3cncn3)c(C(F)(F)F)n2)cc1 [VII-04, 1-[6-(4-ethynylphenoxy)-2-(trifluoromethyl)-3-pyridyl]-2-(1,2,4-triazol-1-yl)ethanone] here?
**A.** 2.63
